Experiment [1] addresses T1, eIF4A R110E mutant (Homo sapiens, UniProt P60842, R110E).
T1 construct: 6xHis with TEV protease site (N, cleaved yes); made in house; host or cells: E. coli BL21-CodonPlus
The experiment in a line: malachite green ATPase assay, eIF4A mutant. In kind it is biochemical. How it is done: (§1) Furthermore, T158 is predicted to form a hydrogen bond to the […] of the 6-nitro quinoline substitution of compound 28. The ability of the 6-nitro group to form two strong interactions with the binding pocket of eIF4A is the most likely explanation for why this substitution afforded 28 such a large gain in potency for compound 28 compared to other analogs in the inhibitor series. Mutagenesis and recombinant production of mutant eIF4A protein was performed to confirm the docking pose and predicted interactions between compound 28 and its eIF4A binding pocket (FIG. 6D).
(§2) ATPase assay. Recombinant WT or mutant eIF4A was added to a clear bottom 384 well plate (Greiner) in ATPase buffer (20 mM Tris pH 7.4, 80 mM KCl, 2.5 mM MgCl2, 1 mM DTT, 1% glycerol). Compounds were added and the plate was incubated at 37° C. for 20 min. ATP/RNA solution was added to afford a 20 μL per well reaction volume with 750 nM eIF4A, 250 μM ATP, and 0.25 mg/mL Yeast RNA (Sigma) for the initial screen and dose responses, and varying concentrations of ATP and RNA for the kinetic assays. The plate was incubated for 4 h at 37° C. for the initial screen and dose responses, and at seven time points (1 hour-7 hours) for kinetic assays. 0.04% v/v (final concentration) Tween-20 was added to a Malachite Green solution, and the Malachite Green (40 μL per well) was added. The solution was incubated for 5 minutes at room temperature and Absorbance at 660 nm was read on a SpectraMax iD5 plate reader (Molecular Devices).

In experiment [2] the target is T2, eIF4A R110K mutant (Homo sapiens, UniProt P60842, R110K).
T2 construct: 6xHis with TEV protease site (N, cleaved yes); made in house; host or cells: E. coli BL21-CodonPlus
T2 sequence (P60842 whole entry R110K): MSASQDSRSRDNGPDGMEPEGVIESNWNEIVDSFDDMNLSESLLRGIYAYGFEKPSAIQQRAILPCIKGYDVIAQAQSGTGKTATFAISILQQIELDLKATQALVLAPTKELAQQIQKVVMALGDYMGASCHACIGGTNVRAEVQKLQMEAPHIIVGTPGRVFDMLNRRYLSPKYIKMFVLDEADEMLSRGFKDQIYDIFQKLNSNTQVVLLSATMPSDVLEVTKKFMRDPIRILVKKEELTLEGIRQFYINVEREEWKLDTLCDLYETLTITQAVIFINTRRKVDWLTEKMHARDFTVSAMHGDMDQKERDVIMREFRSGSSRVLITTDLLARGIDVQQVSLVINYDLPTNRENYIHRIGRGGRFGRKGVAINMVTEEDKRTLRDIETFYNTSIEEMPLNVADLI
The experiment in a line: malachite green ATPase assay, eIF4A mutant. In kind it is biochemical. The protocol: as §1, §2

The target of experiment [3] is T3, eIF4A R110L mutant (Homo sapiens, UniProt P60842, R110L).
T3 construct: 6xHis with TEV protease site (N, cleaved yes); made in house; host or cells: E. coli BL21-CodonPlus
T3 sequence (P60842 whole entry R110L): as the sequence (P60842 whole entry R110K) above, with K110L counted along it
Briefly: malachite green ATPase assay, eIF4A mutant. Type of experiment: biochemical. The protocol:
as §1, §2

Experiment [4] deals with T4, eIF4A R110M mutant (Homo sapiens, UniProt P60842, R110M).
T4 construct: 6xHis with TEV protease site (N, cleaved yes); made in house; host or cells: E. coli BL21-CodonPlus
T4 sequence (P60842 whole entry R110M): as the sequence (P60842 whole entry R110K) above, with K110M counted along it
The experiment in a line: malachite green ATPase assay, eIF4A mutant. Type of experiment: biochemical. How it is done: as §1, §2

Experiment [5] concerns the target T5, eIF4A T158A mutant (Homo sapiens, UniProt P60842, T158A).
T5 construct: 6xHis with TEV protease site (N, cleaved yes); made in house; host or cells: E. coli BL21-CodonPlus
Briefly: malachite green ATPase assay, eIF4A mutant. In kind it is biochemical. How it is done:
as §1, §2

The target in experiment [6] is T6, eIF4A T158V mutant (Homo sapiens, UniProt P60842, T158V).
T6 construct: 6xHis with TEV protease site (N, cleaved yes); made in house; host or cells: E. coli BL21-CodonPlus
T6 sequence (P60842 whole entry T158V): as the sequence (P60842 whole entry R110K) above, with K110R, T158V counted along it
The experiment in a line: malachite green ATPase assay, eIF4A mutant. Type of experiment: biochemical. How it is done: as §1, §2

For experiment [7], the target named is T7, eIF4A R311E mutant (Homo sapiens, UniProt P60842, R311E).
T7 construct: 6xHis with TEV protease site (N, cleaved yes); made in house; host or cells: E. coli BL21-CodonPlus
T7 sequence (P60842 whole entry R311E): as the sequence (P60842 whole entry R110K) above, with K110R, R311E counted along it
The experiment in a line: malachite green ATPase assay, eIF4A mutant. In kind it is biochemical. From the text:
(§3) Furthermore, eIF4A R311K and R311E mutants were produced and tested with compound 28. As expected, compound 28 had no potency toward R311E, as the positively charged arginine is replaced with a negatively charged glutamic acid that repels the carboxylic acid of compound 28. However, compound 28 also had no potency for eIF4A R311K, even though it still maintains its positive charge. This may be attributed to the inability of this lysine to simultaneously provide hydrogen bond donation and ionic interactions to compound 28 due to geometrical constraints. The molecular docking also predicted that the furan of 28 may form a hydrogen bond with T109, and the butyl group may lie within a small hydrophobic groove within the binding pocket (FIG. 6A). Nevertheless, mutations to R110, T158, and R311 causing drastic losses in potency of compound 28 provided strong evidence that this was the correct binding pocket and pose for compound 28. This site, wedged between each RecA-like domain of eIF4A, is a novel binding pocket that has never been accessed by an eIF4A inhibitor.
(§4) ATPase assay. Recombinant WT or mutant eIF4A was added to a clear bottom 384 well plate (Greiner) in ATPase buffer (20 mM Tris pH 7.4, 80 mM KCl, 2.5 mM MgCl2, 1 mM DTT, 1% glycerol). […] The solution was incubated for 5 minutes at room temperature and Absorbance at 660 nm was read on a SpectraMax iD5 plate reader (Molecular Devices).

Experiment [8] concerns the target T8, eIF4A R311K mutant (Homo sapiens, UniProt P60842, R311K).
T8 construct: 6xHis with TEV protease site (N, cleaved yes); made in house; host or cells: E. coli BL21-CodonPlus
The experiment in a line: malachite green ATPase assay, eIF4A mutant. In kind it is biochemical.
Description: as §3, §4

For experiment [9], the target named is T9, eIF4A (Homo sapiens, UniProt P60842). Briefly: MANT-ATP fluorescence polarization assay. Type of experiment: binding. The arrangement: 6xHis with TEV protease site (N, cleaved yes); made in house; host or cells: E. coli BL21-CodonPlus. Particulars: compound 200 μM or ADP 1 mM; MANT-ATP 100 nM. The protocol: Additional biochemical testing was performed on compound 28 to investigate its mechanism of eIF4A inhibition. Initially, kinetics experiments were repeated with compound 28, and the results for compound 28 matched those of compound 1 (FIG. 5D, 4A). Upon addition of compound 28, Km and Vmax of eIF4A decreased with respect to ATP. With respect to RNA, eIF4A Km […] and Vmax remained constant. […] Fluorescence polarization (FP) assays were utilized to confirm this mechanism of inhibition by testing the ability of compound 28 to compete fluorescent substrates off eIF4A. First, an FP assay was performed with MANT-ATP, a fluorescent, non-hydrolysable ATP analog, as the substrate.
T9 sequence (P60842 whole entry): as the sequence (P60842 whole entry R110K) above, with K110R counted along it
MANT-ATP fluorescence polarization assay. Recombinant eIF4A (15 μM) was added to a low-volume black 384 well plate (Greiner). Yeast RNA (0.25 mg/mL) was added along with compound (200 μM) or ADP (1 mM) and the plate was incubated for 20 min. MANT-ATP was added (100 nM) and the plate was incubated for 30 min before fluorescence polarization was read at 355 nm:448 nm (Ex:Em) on a SpectraMax iD5 plate reader (Molecular Devices).

Experiment [10] has as its target T9, eIF4A. Briefly: Thermal Shift Assay (TSA)/Differential Scanning Fluorimetry (DSF). In kind it is binding. Details: 6xHis with TEV protease site (N, cleaved yes); made in house; host or cells: E. coli BL21-CodonPlus. Particulars: 5 μM eIF4A, 2 mM AMPPNP. How it is done:
Further evidence of this was uncovered in a thermal shift assay (TSA) using DSF with eIF4A and compound 28. […] Larger doses of compound 28 caused larger melting temperature (Tm) shifts in this assay, which argues that compound 28 is directly binding eIF4A.
Thermal Shift Assay (TSA)/Differential Scanning Fluorimetry (DSF). TSA/DSF experiments were performed on a Lightcycler 480 II (Roche Molecular Systems). eIF4A (5 μM) in buffer (20 mM Tris (pH 7.5), 10% glycerol, 0.1 mM EDTA, 2 mM DTT, 2 mM AMPPNP, 4% DMSO) was added to 96-well PCR plates (USA Scientific, Inc.) with or without compound. After a 5 min incubation, SYPRO orange dye was added to a final concentration of 5×. Samples were melted over a gradient from 20 to 85° C. with 20 acquisitions per ° C. at a ramp rate of 0.03° C./s.
On the technique in general: DSF heats the sample and reads unfolding from a dye or from intrinsic fluorescence.

T1 sequence (P60842 whole entry R110E): as the sequence (P60842 whole entry R110K) above, with K110E counted along it
T8 sequence (P60842 whole entry R311K): as the sequence (P60842 whole entry R110K) above, with K110R, R311K counted along it
T5 sequence (P60842 whole entry T158A): as the sequence (P60842 whole entry R110K) above, with K110R, T158A counted along it

Consider `CCCCc1ccc(-c2ccc(-c3cc(C(=O)O)c4cc([N+](=O)[O-])ccc4n3)o2)cc1` [Compound 28, 2-(5-(4-butylphenyl)furan-2-yl)-6-nitroquinoline-4-carboxylic acid], for which the “potency against eIF4A mutant in ATPase assay” value is “lost all potency” in [1]; “remained moderately potent” in experiment [2]; “lost all potency” in experiment [3]; “lost all potency” in experiment [4]; “lost all potency” in [5]; “lost all potency” in [6]. Besides, the “potency against eIF4A mutant in ATPase assay” value in experiment [7] and in experiment [8] was “no potency” throughout. In addition, the “competition of MANT-ATP off eIF4A” value in experiment [9] was “not an ATP-competitive inhibitor”. Also, in experiment [10], the “eIF4A thermal stability / melting temperature (TSA)” value is given as “increased eIF4A stability”.

The values are drawn from US20240360107A1, “AN EIF4A INHIBITOR WITH A NOVEL MECHANISM OF ACTION” (ARIZONA BOARD OF REGENTS ON BEHALF OF THE UNIVERSITY OF …, priority 2021, published 2024).
